Residue numbers refer to the chain shown, from its start.
Key:
Assay type in all cases: biochemical
AKR1C1 = target: T1, AKR1C1 (Homo sapiens, UniProt Q04828); assay: specific activity of purified enzyme, absorbance at […] nm
T1 construct: homogeneous recombinant enzyme
T1 sequence (Q04828 1-323): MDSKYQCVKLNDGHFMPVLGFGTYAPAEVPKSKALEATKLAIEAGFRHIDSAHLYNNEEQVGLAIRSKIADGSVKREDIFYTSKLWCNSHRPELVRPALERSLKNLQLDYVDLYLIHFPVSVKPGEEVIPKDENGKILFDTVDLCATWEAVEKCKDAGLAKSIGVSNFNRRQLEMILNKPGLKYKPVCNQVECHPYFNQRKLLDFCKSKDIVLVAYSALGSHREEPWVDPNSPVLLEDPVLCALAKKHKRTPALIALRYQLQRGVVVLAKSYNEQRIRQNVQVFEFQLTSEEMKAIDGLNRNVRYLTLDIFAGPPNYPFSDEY

AKR1C2 = target: T2, AKR1C2 (Homo sapiens, UniProt P52895); assay: oxidation by purified enzyme, absorbance at […] nm; Km; conditions: cited from earlier work
T2 construct: homogeneous recombinant enzyme
T2 sequence (P52895 1-323): T1 sequence (Q04828 1-323) with T38V, R47H, L54V, C87S, V151M, R170H, Q172L

AKR1C3 = target: T3, AKR1C3 (Homo sapiens, UniProt P42330); assay: inhibition of NADP+-dependent S-tetralol oxidation by recombinant enzyme
T3 construct: homogeneous recombinant enzyme
T3 sequence (P42330 1-323): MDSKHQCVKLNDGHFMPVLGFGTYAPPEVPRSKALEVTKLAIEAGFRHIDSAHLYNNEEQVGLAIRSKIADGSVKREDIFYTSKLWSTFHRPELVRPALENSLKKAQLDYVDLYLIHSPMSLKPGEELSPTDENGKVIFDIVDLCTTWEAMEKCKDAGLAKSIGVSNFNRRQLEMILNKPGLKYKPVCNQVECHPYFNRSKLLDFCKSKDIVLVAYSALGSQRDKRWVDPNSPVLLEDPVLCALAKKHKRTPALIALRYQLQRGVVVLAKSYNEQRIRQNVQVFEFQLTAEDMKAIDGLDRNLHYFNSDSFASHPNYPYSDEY

O[C@H]1CCCc2ccccc21 [S-tetralol, (S)-(+)-1,2,3,4-tetrahydro-1-naphthol]
specific activity of purified enzyme, absorbance at 340 nm (AKR1C1): 1.4 µmol/min/mg | Km (AKR1C2): 15 µM

C#CCOc1ccc(CNC(=O)c2cc(/C=C/C(=O)O)cc(-c3ccccc3)c2)cc1 [compound 4, warhead 4]
IC50 (AKR1C3): 62 ± 1 nM

O=C(O)/C=C/c1cc(C(=O)NCc2ccc(OCc3cn(CCOCCOCC(=O)Nc4cccc5c4CN(C4CCC(=O)NC4=O)C5=O)nn3)cc2)cc(-c2ccccc2)c1 (stereo not shown) [compound 5, (E)-3-(5-((4-((1-(2-(2-(2-((2-(2,6-dioxopiperidin-3-yl)-1-oxoisoindolin-4-yl)amino)-2-oxoethoxy)ethoxy)ethyl)-1H-1,2,3-triazol-4-yl)methoxy)benzyl)carbamoyl)-[1,1’-biphenyl]-3-yl)acrylic acid]
IC50 (AKR1C3): 77 ± 2 nM
